{
  "source": "paper PMC9181899",
  "about": "“Synthesis and Anticancer Properties of New 3-Methylidene-1-sulfonyl-2,3-dihydroquinolin-4(1H)-ones” (Molecules, 2022)",
  "key": {"MCF-7 cells": {"system": "MCF-7 cells", "test": "MTT in vitro cytotoxicity assay, MCF-7", "format": "cell-based", "settings": "Homo sapiens, MCF7, 48 h incubation, mean ± SEM", "protocol": "The promyelocytic leukemia HL-60 and breast cancer adenocarcinoma MCF-7 cell lines were purchased from the European Collection of Cell Cultures (ECACC). Leukemia cells were cultured in RPMI 1640 plus GlutaMax I medium (Gibco/Life Technologies, Carlsbad, CA, USA). MCF-7 cells were maintained in Minimum Essential Medium Eagle (Sigma Aldrich, St. Louis, MO, USA) and supplemented with 2 mM glutamine and men non-essential amino acid solution (Sigma Aldrich, St. Louis, MO, USA). Both media were supplemented with 10% heat-inactivated fetal bovine serum (Biological Industries, Beit-Haemek, Israel) and antibiotics (100 U/mL penicillin and 100 μg/mL streptomycin) (Sigma-Aldrich, St. Louis, MO, USA). Human umbilical vein endothelial cells (HUVECs) were purchased from the American Type Culture Collection (ATCC). Cells were cultured using EGM-2 Endothelial Medium BulletKit purchased from Lonza (Lonza, Walkersville, MD, USA). Cells were maintained at 37 °C in 5% CO2 atmosphere and grown until 80% confluent.\nThe tested compounds were dissolved in sterile dimethyl sulfoxide (DMSO) and further diluted with culture medium. The final concentration of DMSO in cell cultures was less than 0.1% v/v. Controls without and with 0.1% DMSO were performed in each experiment. At the used concentration, DMSO had no effect on the observed parameters.\nThe MTT (3-(4,5-dimethylthiazol-2-yl)-2,5-diphenyltetrazolium bromide) assay, which measures the activity of cellular dehydrogenases, was performed according to the Mosmann method. Exponentially growing cells were seeded into 24-well plates at a density of 8 × 10^4 cells/mL and left to grow for 24 h. After 24 h or 48 h of incubation with various concentrations of the tested compounds (dissolved in DMSO and diluted with complete culture medium), cells were incubated with 0.1 mL of MTT solution (5 mg/mL in phosphate buffered saline) for 1.5 h. The metabolically active cells reduced MTT to blue formazan crystals. The plates were centrifuged, and the supernatant was discarded. DMSO (1 mL) was added to each well to dissolve the crystals, whose absorbance was measured at 560 nm using FlexStation 3 Multi-Mode Microplate Reader (Molecular Devices, LLC, San Jose, CA, USA). The untreated cells were used as control. The IC50 values were calculated from the concentration–response curves. The data were expressed as mean ± SEM of three independent experiments."}, "HL-60 cells": {"system": "HL-60 cells", "test": "DNA damage by H2AX (pS139) staining, flow cytometry", "format": "cell-based, human", "settings": "24 h; for increase of phosphorylated H2AX level: vs control", "protocol": "To evaluate the anticancer potential of 5a, the ability of this compound to inhibit cell proliferation, induce apoptotic cell death, and generate DNA damage was examined by flow cytometry using the ‘Apoptosis, DNA Damage, and Cell Proliferation Kit’ (BD Bioscience). After 24 h treatment with 5a in increasing concentrations, HL-60 cells were exposed to bromodeoxyuridine (BrdU) for additional 8 h. Then, the cells were simultaneously stained with fluorochrome-labeled anti-BrdU, anti-cleaved PARP (Asp214) and anti-H2AX (pS139).\nIt is well documented that apoptosis induced by many anticancer drugs may be a consequence of DNA damage. Chemical genotoxins that target DNA can inhibit DNA replication, which leads to the collapse of replication forks and the formation of DNA double strand breaks (DSBs). The generation of DNA damage was evaluated using anti-H2AX (pS139) antibodies directed against the phosphorylated form of human H2AX protein at the pS139 residue that is considered to be a biomarker for DNA DSBs. The treatment of HL-60 cells with 5a increased the levels of phosphorylated H2AX by 4.7- and 7.8-fold (to 1.35 µM and 1.9 µM, respectively), indicating the dose-dependent genotoxic effect of the tested compound (Figure 4c).\nCell proliferation, DNA damage, and apoptotic cell death were determined using Apoptosis, DNA Damage, and Cell Proliferation Kit (BD Bioscience, San Jose, CA, USA), according to the manufacturer protocol. Briefly, HL-60 cells were seeded in 6-well plates (4.0 × 10^5 cells/mL) in 2 mL of growth medium and treated with 5a for 24 h. Afterwards, the bromodeoxyuridine (BrdU, 10 µM) was added and the cells were incubated for additional 8 h. Next, the cells were collected by centrifugation (300× g, 5 min), counted, fixed, and permeabilized according to the manufacturer’s instructions. The cells were incubated with DNase (300 µg/mL in PBS) for 1 h at 37 °C and then simultaneously stained with fluorochrome-labeled anti-BrdU, H2AX (pS139), and cleaved PARP (Asp214) antibodies, for 20 min at room temperature. After washing, DNA staining with DAPI (1 µg/mL of the staining buffer) was performed, and the cells were analyzed by flow cytometry using CytoFLEX (Beckman Coulter, Inc., Brea, CA, USA)."}, "ABCB1 gene expression": {"system": "ABCB1 gene expression", "test": "Real-time PCR of ABCB1 mRNA level in HL-60 cells", "format": "cell-based", "settings": "higher concentration (1.8 µM; 0.9 and 1.8 µM tested), 24 h", "excerpt": "Overexpression of ATP-binding cassette (ABC) transporters causing multidrug resistance (MDR) in cancer cells is one of the major problems associated with poor therapeutic outcome of anticancer drugs. ABC transporters reduce the cellular uptake of drugs into cancer cells, defending them from medical interventions. In leukemia cells ABCB1 (P-glycoprotein), overexpression has been observed. […] It seemed interesting to determine if 3-methylidenequinolin-4-one 5a would also down-regulate ABCB1 mRNA levels in leukemia HL-60 cells. Here, we tested the ABCB1 gene expression of 5a at two concentrations, 0.9 and 1.8 µM. Compound 5a decreased the ABCB1 mRNA level at a higher concentration (Figure 6).\nThe mRNA level of the ABCB1 gene was assessed using quantitative real-time PCR. Briefly, HL-60 cells were seeded in 6-well plates (4.0 × 10^5 cells/mL) in 2 mL of growth medium and treated with 5a for 24 h. Total RNA was extracted using the Total RNA Mini Kit (A&A Biotechnology, Gdynia, Poland) according to the manufacturer’s protocol. The concentration of RNA used for further experiments was 500 ng. cDNA was synthesized using Transcriba Kit (A&A Biotechnology, Gdynia, Poland). […] The expression level of ABCB1 gene was determined by the 2^−∆∆CT method."}},
  "data": [
    {"compound": "C=C1C(=O)c2ccccc2N(S(=O)(=O)c2ccccc2)C1CC", "note": "(stereo not drawn) [Compound 5a, 2-Ethyl-3-methylidene-1-(phenylsulfonyl)-2,3-dihydroquinolin-4(1H)-one]", "values": [
      {"measurement": "IC50", "setting": "MCF-7 cells", "value": "2.74 ± 0.07", "unit": "µM"},
      {"measurement": "increase of phosphorylated H2AX level", "setting": "HL-60 cells; 1.35 µM", "value": 4.7, "unit": "fold"},
      {"measurement": "Q1: H2AX (pS139) positive, cleaved PARP negative cells (representative plot)", "setting": "HL-60 cells; 1.8 µM, Figure 3b", "value": 5.0, "unit": "%"},
      {"measurement": "Q2: H2AX (pS139) and cleaved PARP positive cells (representative plot)", "setting": "HL-60 cells; 1.8 µM, Figure 3b", "value": 13.2, "unit": "%"},
      {"measurement": "increase of phosphorylated H2AX level", "setting": "HL-60 cells; 1.9 µM", "value": 7.8, "unit": "fold"},
      {"measurement": "ABCB1 mRNA level", "setting": "ABCB1 gene expression", "value": "decreased"}
    ]}
  ]
}
